Laboratory results taken from the supplement of paper PMC10307832.

Key:
Assay in all cases: relative viability (nuclei count vs DMSO), 5 days (fraction); higher = more cells survive
CAL-12T = tested on: CAL-12T
Method in brief: (§1)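 The day after seeding in 1536-well plates, lung cancer cell lines were treated by pin tool with a single drug, or with a fixed anchor-drug dose together with five library-drug doses (not always all listed) in √10 steps. After 5 days, a combined fix-and-stain solution (final 0.05% Triton X-100, 1% formaldehyde, 1 ug/ml Hoechst) was added. Nuclei counted on 4× images gave relative viability as treated counts over vehicle counts, reported as the median of duplicate plates.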

COR-L 105 = tested on: COR-L 105
Method in brief: as §1

EKVX = tested on: EKVX
Method in brief: as §1

EMC-BAC-2 = tested on: EMC-BAC-2
Method in brief: as §1

H3255 = tested on: H3255
Method in brief: as §1

LC-2-ad = tested on: LC-2-ad
Method in brief: as §1

LK-2 = tested on: LK-2
Method in brief: as §1

LXF-289 = tested on: LXF-289
Method in brief: as §1

NCI-H1395 = tested on: NCI-H1395
Method in brief: as §1

NCI-H1437 = tested on: NCI-H1437
Method in brief: as §1

NCI-H1651 = tested on: NCI-H1651
Method in brief: as §1

NCI-H1755 = tested on: NCI-H1755
Method in brief: as §1

NCI-H1793 = tested on: NCI-H1793
Method in brief: as §1

NCI-H1915 = tested on: NCI-H1915
Method in brief: as §1

NCI-H1944 = tested on: NCI-H1944
Method in brief: as §1

NCI-H2085 = tested on: NCI-H2085
Method in brief: as §1

NCI-H2087 = tested on: NCI-H2087
Method in brief: as §1

NCI-H2228 = tested on: NCI-H2228
Method in brief: as §1

NCI-H2347 = tested on: NCI-H2347
Method in brief: as §1

NCI-H661 = tested on: NCI-H661
Method in brief: as §1

PC-3 [JPC-3] = tested on: PC-3 [JPC-3]
Method in brief: as §1

SK-LU-1 = tested on: SK-LU-1
Method in brief: as §1

SK-MES-1 = tested on: SK-MES-1
Method in brief: as §1

Compound `O=C(O)CCCCC(CCSCc1ccccc1)SCc1ccccc1` (centres undefined) [CPI-613] + CCNC(=O)c1noc(-c2cc(C(C)C)c(O)cc2O)c1-c1ccc(CN2CCOCC2)cc1 [Luminespib] (partner 0.01 µM) has a relative viability (CAL-12T; first compound 5 µM) of 0.349, a relative viability (CAL-12T; first compound 15.81 µM) of 0.325 and a relative viability (CAL-12T; first compound 50 µM) of 0.377. It also gave a relative viability (CAL-12T; first compound 158.11 µM) of 0.0292, a relative viability (CAL-12T; first compound 500 µM) of 0.0074 and a relative viability (COR-L 105; first compound 5 µM) of 0.749. It also gave a relative viability (COR-L 105; first compound 15.81 µM) of 0.727, a relative viability (COR-L 105; first compound 50 µM) of 0.692 and a relative viability (COR-L 105; first compound 158.11 µM) of 0.421. The relative viability (COR-L 105; first compound 500 µM) was 0.127, the relative viability (EKVX; first compound 5 µM) was 0.834 and the relative viability (EKVX; first compound 15.81 µM) was 0.881. It also gave a relative viability (EKVX; first compound 50 µM) of 0.864, a relative viability (EKVX; first compound 158.11 µM) of 0.814 and a relative viability (EKVX; first compound 500 µM) of 0.803. The relative viability (EMC-BAC-2; first compound 5 µM) was 1.15, the relative viability (EMC-BAC-2; first compound 15.81 µM) was 1.08 and the relative viability (EMC-BAC-2; first compound 50 µM) was 1.16. It also gave a relative viability (EMC-BAC-2; first compound 158.11 µM) of 0.396, a relative viability (EMC-BAC-2; first compound 500 µM) of 0.0424 and a relative viability (H3255; first compound 5 µM) of 0.822. For the same compound, the relative viability (H3255; first compound 15.81 µM) was 0.802, the relative viability (H3255; first compound 50 µM) was 0.879 and the relative viability (H3255; first compound 500 µM) was 0.878. The relative viability (LC-2-ad; first compound 5 µM) was 1.02, the relative viability (LC-2-ad; first compound 15.81 µM) was 0.958 and the relative viability (LC-2-ad; first compound 50 µM) was 0.847. It also gave a relative viability (LC-2-ad; first compound 158.11 µM) of 0.235, a relative viability (LC-2-ad; first compound 500 µM) of 0.0688 and a relative viability (LK-2; first compound 5 µM) of 0.19. The relative viability (LK-2; first compound 15.81 µM) was 0.198, the relative viability (LK-2; first compound 50 µM) was 0.189 and the relative viability (LK-2; first compound 158.11 µM) was 0.153. It also gave a relative viability (LK-2; first compound 500 µM) of 0.172, a relative viability (LXF-289; first compound 5 µM) of 0.611 and a relative viability (LXF-289; first compound 15.81 µM) of 0.535. The relative viability (LXF-289; first compound 50 µM) was 0.657, the relative viability (LXF-289; first compound 158.11 µM) was 0.206 and the relative viability (LXF-289; first compound 500 µM) was 0.0484. The relative viability (NCI-H1395; first compound 5 µM) was 0.672, the relative viability (NCI-H1395; first compound 15.81 µM) was 0.828 and the relative viability (NCI-H1395; first compound 50 µM) was 0.749. The relative viability (NCI-H1395; first compound 158.11 µM) was 0.665, the relative viability (NCI-H1395; first compound 500 µM) was 0.659 and the relative viability (NCI-H1437; first compound 5 µM) was 1.09. The relative viability (NCI-H1437; first compound 15.81 µM) was 1.04, the relative viability (NCI-H1437; first compound 50 µM) was 1.07 and the relative viability (NCI-H1437; first compound 158.11 µM) was 0.53. For the same compound, the relative viability (NCI-H1437; first compound 500 µM) was 0.0571, the relative viability (NCI-H1651; first compound 5 µM) was 0.867 and the relative viability (NCI-H1651; first compound 15.81 µM) was 0.932. For the same compound, the relative viability (NCI-H1651; first compound 50 µM) was 0.841, the relative viability (NCI-H1651; first compound 158.11 µM) was 0.185 and the relative viability (NCI-H1651; first compound 500 µM) was 0.118. The relative viability (NCI-H1755; first compound 5 µM) was 0.613, the relative viability (NCI-H1755; first compound 15.81 µM) was 0.508 and the relative viability (NCI-H1755; first compound 50 µM) was 0.24. For the same compound, the relative viability (NCI-H1755; first compound 158.11 µM) was 0.34, the relative viability (NCI-H1755; first compound 500 µM) was 0.185 and the relative viability (NCI-H1793; first compound 5 µM) was 0.252. It also gave a relative viability (NCI-H1793; first compound 15.81 µM) of 0.372, a relative viability (NCI-H1793; first compound 50 µM) of 0.175 and a relative viability (NCI-H1793; first compound 158.11 µM) of 0.131. It also gave a relative viability (NCI-H1793; first compound 500 µM) of 0.0028, a relative viability (NCI-H1915; first compound 5 µM) of 0.746 and a relative viability (NCI-H1915; first compound 15.81 µM) of 0.841. The relative viability (NCI-H1915; first compound 50 µM) was 0.675, the relative viability (NCI-H1915; first compound 158.11 µM) was 0.161 and the relative viability (NCI-H1915; first compound 500 µM) was 0.0405. For the same compound, the relative viability (NCI-H1944; first compound 5 µM) was 0.748, the relative viability (NCI-H1944; first compound 15.81 µM) was 0.701 and the relative viability (NCI-H1944; first compound 50 µM) was 0.757. It also gave a relative viability (NCI-H1944; first compound 158.11 µM) of 0.409, a relative viability (NCI-H1944; first compound 500 µM) of 0.0599 and a relative viability (NCI-H2085; first compound 5 µM) of 0.43. The relative viability (NCI-H2085; first compound 15.81 µM) was 0.371, the relative viability (NCI-H2085; first compound 50 µM) was 0.406 and the relative viability (NCI-H2085; first compound 158.11 µM) was 0.177. For the same compound, the relative viability (NCI-H2085; first compound 500 µM) was 0.118, the relative viability (NCI-H2087; first compound 5 µM) was 0.182 and the relative viability (NCI-H2087; first compound 15.81 µM) was 0.165. The relative viability (NCI-H2087; first compound 50 µM) was 0.155, the relative viability (NCI-H2087; first compound 158.11 µM) was 0.0422 and the relative viability (NCI-H2087; first compound 500 µM) was 0.026. It also gave a relative viability (NCI-H2228; first compound 5 µM) of 0.145, a relative viability (NCI-H2228; first compound 15.81 µM) of 0.205 and a relative viability (NCI-H2228; first compound 50 µM) of 0.137. The relative viability (NCI-H2228; first compound 158.11 µM) was 0.141, the relative viability (NCI-H2228; first compound 500 µM) was 0.0612 and the relative viability (NCI-H2347; first compound 5 µM) was 0.279. The relative viability (NCI-H2347; first compound 15.81 µM) was 0.344, the relative viability (NCI-H2347; first compound 50 µM) was 0.746 and the relative viability (NCI-H2347; first compound 158.11 µM) was 0.548. For the same compound, the relative viability (NCI-H2347; first compound 500 µM) was 0.833, the relative viability (NCI-H661; first compound 5 µM) was 0.887 and the relative viability (NCI-H661; first compound 15.81 µM) was 0.904. For the same compound, the relative viability (NCI-H661; first compound 50 µM) was 0.916, the relative viability (NCI-H661; first compound 158.11 µM) was 0.468 and the relative viability (NCI-H661; first compound 500 µM) was 0.141. The relative viability (PC-3 [JPC-3]; first compound 5 µM) was 0.594, the relative viability (PC-3 [JPC-3]; first compound 15.81 µM) was 0.578 and the relative viability (PC-3 [JPC-3]; first compound 50 µM) was 0.627. For the same compound, the relative viability (PC-3 [JPC-3]; first compound 158.11 µM) was 0.563, the relative viability (PC-3 [JPC-3]; first compound 500 µM) was 0.48 and the relative viability (SK-LU-1; first compound 5 µM) was 0.205. It also gave a relative viability (SK-LU-1; first compound 15.81 µM) of 0.2, a relative viability (SK-LU-1; first compound 50 µM) of 0.198 and a relative viability (SK-LU-1; first compound 158.11 µM) of 0.128. It also gave a relative viability (SK-LU-1; first compound 500 µM) of 0.101, a relative viability (SK-MES-1; first compound 5 µM) of 0.772 and a relative viability (SK-MES-1; first compound 15.81 µM) of 0.659. For the same compound, the relative viability (SK-MES-1; first compound 50 µM) was 0.666, the relative viability (SK-MES-1; first compound 158.11 µM) was 0.163 and the relative viability (SK-MES-1; first compound 500 µM) was 0.0794.
